Here are results for six compounds from ChEMBL document CHEMBL1122054, “Lysosomotropic agents. 4. Carbobenzoxyglycylphenylalanyl, a new protease-sensitive masking group for introduction into cells” (J Med Chem, 1982).

For data set [1], the species on record is Mus musculus. Put plainly: Toxicity toward P-815 Mastocytoma cells after 5 hr was determined as percent of [51Cr]- release from labeled cells as a measure of cell death. at a concentration of 0.281 mM. (expt IV). Type of data set: functional.
The nature of data set [2]: Compound treated with MPM cell homogenate at pH 6.5 to isolate compound 4 (ng). The class given is ADME, cell-based.
Data set [3] deals with MPM. The data set is described as follows: Compound (steam-treated 10 min) in presence of MPM cells at pH 3 to isolate compound 4 (ng); No data. The class given is cell-based.
The species entered for data set [4] is Mus musculus. Put plainly: Appearance of mouse peritoneal macrophages after 3h of treatment with compound at a concentration of 0.375 mM; vacuoles, rounded. The class given is functional, organism-based.
A short description of data set [5]: Compound treated with MPM cell homogenate at pH 4 to isolate compound 4 (ng). Type of data set: ADME, cell-based.
Data set [6] is described as follows: Compound treated in absence of MPM cell homogenate at pH 4.5 to isolate compound 4 (ng). Type of data set: ADME, cell-based.
A short description of data set [7]: Compound in absence of MPM cell homogenate at pH 7 to isolate compound 4 (ng). Type of data set: ADME, cell-based.
Data set [8] is described as follows: Compound treated with MPM cell homogenate at pH 7.5 to isolate compound 4 (ng). Type of data set: ADME, cell-based.
The species named for data set [9] is Mus musculus. Put plainly: Toxicity was evaluated for the compound at a concentration of 0.331 mM against […] Mastocytoma. The class given is functional.
Data set [10] relates to MPM. Put plainly: Compound in absence of MPM cells and in absence of inactivator at pH 8 to isolate compound 4 (ng). Type of data set: cell-based.
Data set [11] is described as follows: Compound in absence of MPM cell homogenate at pH 3 to isolate compound 4 (ng). The class given is ADME, cell-based.
In data set [12] the test system is MPM. The data set is described as follows: Compound along with 10 uM HgCl2 in presence of MPM cells at pH 3 to isolate compound 4 (ng). The class given is cell-based.
Data set [13] in a line: Compound treated with MPM cell homogenate at pH 4.5 to isolate compound 4 (ng). The class given is ADME, cell-based.
Data set [14] is described as follows: Compound treated with MPM cell homogenate at pH 7 to isolate compound 4 (ng). The class given is ADME, cell-based.
In data set [15] the test system is MPM. The data set is described as follows: Compound in presence of MPM cells and in absence of inactivator at pH 8 to isolate compound 4 (ng). The class given is cell-based.
A short description of data set [16]: Compound treated with MPM cell homogenate at pH 3 to isolate compound 4 (ng). The class given is ADME, cell-based.
Data set [17] has as its system MPM. Put plainly: Compound along with 4 mM pepstatin in presence of MPM cells at pH 3 to isolate compound 4 (ng). Type of data set: cell-based.
The nature of data set [18]: Compound treated with MPM cell homogenate at pH 5 to isolate compound 4 (ng). Type of data set: ADME, cell-based.
The species entered for data set [19] is Mus musculus. The data set is described as follows: Cytotoxicity was determined for the compound against mouse peritoneal macrophages (MPM) at a concentration of 0.165 mM. Type of data set: functional.
Data set [20] has as its system MPM. The data set is described as follows: Compound along with 3 mM leupeptin in presence of MPM cells at pH 3 to isolate compound 4 (ng). Type of data set: cell-based.
A short description of data set [21]: Compound treated with MPM cell homogenate at pH 8 to isolate compound 4 (ng). The class given is ADME, cell-based.
The species named for data set [22] is Mus musculus. Put plainly: Cytotoxicity was determined against mouse peritoneal macrophages (MPM) and the percent of LDH released after 24 hr was determined as a measure of cell death at a concentration of 0.375 mM (expt I). The class given is functional. Background: Release of lactate dehydrogenase indicates damage to the cell membrane.
A short description of data set [23]: Compound in absence of MPM cell homogenate at pH 4.5 to isolate compound 4 (ng). The class given is ADME, cell-based.
The nature of data set [24]: Compound treated with MPM cell homogenate at pH 6 to isolate compound 4 (ng). The class given is ADME, cell-based.
Data set [25] can be described thus: Compound treated with MPM cell homogenate at pH 5.5 to isolate compound 4 (ng). The class given is ADME, cell-based.
The species entered for data set [26] is Mus musculus. Put plainly: Toxicity toward P-815 Mastocytoma cells after 5 hr was determined as percent of [51Cr]- release from labeled cells as a measure of cell death. at a concentration of 0.331 mM. (expt III). The class given is functional.
A short description of data set [27]: Compound treated with MPM cell homogenate at pH 3.5 to isolate compound 4 (ng). Type of data set: ADME, cell-based.
The species named for data set [28] is Mus musculus. Put plainly: Cytotoxicity was determined against mouse peritoneal macrophages (MPM) and the percent of LDH released after 24 hr was determined as a measure of cell death at a concentration of 0.375 mM (expt II). Type of data set: functional.
Data set [29] concerns MPM. The data set is described as follows: Compound in presence of MPM cells and in absence of inactivator at pH 3 to isolate compound 4 (ng). Type of data set: cell-based.
For data set [30], the species on record is Mus musculus. The data set is described as follows: Toxicity was evaluated for the compound at a concentration of 0.257 mM against […] Mastocytoma. Type of data set: functional.
The species entered for data set [31] is Mus musculus. The data set is described as follows: Toxicity toward P-815 Mastocytoma cells after 5 hr was determined as percent of [51Cr]- release from labeled cells as a measure of cell death. at a concentration of 0.257 mM. (expt III). The class given is functional.
For data set [32], the species on record is Mus musculus. The data set is described as follows: Evaluated for the percent inhibition uptake of radiolabeled thymidine as a measure of inhibition of cell division against the SV40-transformed 3T3 cells after 4 hr at the concentration of 6. Type of data set: functional, NIH3T3.
The species named for data set [33] is Mus musculus. The data set is described as follows: Evaluated for the percent inhibition uptake of radiolabeled thymidine as a measure of inhibition of cell division against the SV40-transformed 3T3 cells after 4 hr at the concentration of 1x10E4M. The class given is functional, NIH3T3.
For data set [34], the species on record is Mus musculus. Put plainly: Evaluated for the percent inhibition uptake of radiolabeled thymidine as a measure of inhibition of cell division against the SV40-transformed 3T3 cells after 4 hr at the concentration of 3x10E4M. Type of data set: functional, NIH3T3.

Values joined by “and” are separate entries in the source; they are usually repeats but may differ in a detail not shown here. Equal values may be shown once. Where a SMILES comes first, the peptide text is derived from it. The star is where a group is joined. Cbz = O=C(OCc1ccccc1)*

For the compound `O=C(CNC(=O)OCc1ccccc1)N[C@@H](Cc1ccccc1)C(=O)O` (Cbz-Gly-Phe-OH), the Cr release in the data set listed under Mus musculus [1] was determined as 16%.

On to `CCCCCCCCCCCCN(CC(F)(F)F)C(=O)[C@@H](Cc1ccccc1)NC(=O)CNC(=O)OCc1ccccc1`, for which the Activity in data set [2] is 28; in the data set on MPM [3], 0; in the data set filed under Mus musculus [4], “vacuoles, rounded”; in data set [5], 49; in data set [6], below 14; in data set [7], 20. For the same compound, the Activity was 52 in data set [8]; 13 in the data set on MPM [10]; 30 in data set [11]; 28 with MPM [12]; 92 and 36 in data set [13]; 34 in data set [14]. The Activity is 24 with MPM [15]; 92 in data set [16]; 27 with MPM [17]; 30 in data set [18]; 23 in the data set on MPM [20]; 104 in data set [21]. Also, the Activity was 36 in data set [23]; 54 in data set [24]; 22 in [25]; 79 in [27]; 53 with MPM [29]. Further, the results for the Toxicity in the data set filed under Mus musculus [9] and in the data set listed under Mus musculus [19] were 200 µg/mL and 100 µg/mL, respectively. The LDH release in the data set listed under Mus musculus [22] was determined as 73%; in the data set filed under Mus musculus [28], 61%. Further, the Cr release in the data set listed under Mus musculus [26] is listed as 22%.

In the data set listed under Mus musculus [30], `CCCCCCCCCCCCNC(=O)[C@H](Cc1ccccc1)NC(=O)CN` registered a Toxicity of 100 µg/mL. Further, in the data set filed under Mus musculus [31], the Cr release is given as 93%.

With `NCC(=O)N[C@H](Cc1ccccc1)C(=O)N(CCCl)CCCl`, the Inhibition uptake was 60% in the data set filed under Mus musculus [32], 5% in the data set listed under Mus musculus [33] and 16% in the data set filed under Mus musculus [34].

For the compound `CCCCCCCCCCCCN(CC(F)(F)F)C(=O)[C@H](Cc1ccccc1)NC(=O)CNC(=O)OCc1ccccc1`, the Activity is 28 in data set [7]; 44 in [11]; below 20 in [13]; 20 in the data set on MPM [15]; 29 in data set [23]. The compound also registered a Toxicity in the data set listed under Mus musculus [9] of 200 µg/mL. For the same compound, the Cr release in the data set filed under Mus musculus [26] was 11%.

With `CC(C)(C)OC(=O)NCC(=O)N[C@H](Cc1ccccc1)C(=O)N(CCCl)CCCl`, the Inhibition uptake is given as 52% in the data set listed under Mus musculus [32], -4% in the data set filed under Mus musculus [33] and 33% in the data set filed under Mus musculus [34].
